Read-outs that look alike come from different tables or passages of the source. Values belong to the compound of their own block, whether it stands above or below them.
Columns and labels:
Ceratitis capitata = test: Mediterranean fruitfly (Ceratitis capitata) diet/egg test; type: in vivo; conditions: 120 h, read-out: mortality in comparison with untreated controls
Experimental: For evaluating control of Mediterranean fruitfly (Ceratitis capitata) the test unit consisted of microtiter plates containing an insect diet and 50-80 C. capitata eggs.
The compounds were formulated using a solution containing 75% v/v water and 25% v/v DMSO. Different concentrations of formulated compounds were sprayed onto the insect diet at 5 nl, using a custom built micro atomizer, at two replications.
(§1) After application, microtiter plates were incubated at about 28±1° C. and about 80±5% relative humidity for 5 days. Egg and larval mortality was then visually assessed.

Anthonomus grandis = test: Boll weevil (Anthonomus grandis) diet/egg test; type: in vivo; conditions: 120 h, read-out: mortality in comparison with untreated controls
Experimental: For evaluating control of boll weevil (Anthonomus grandis) the test unit consisted of 24-well-microtiter plates containing an insect diet and 20-30 A. grandis eggs.
The compounds were formulated using a solution containing 75% v/v water and 25% v/v DMSO. Different concentrations of formulated compounds were sprayed onto the insect diet at 20 μl, using a custom built micro atomizer, at two replications.
After application, microtiter plates were incubated at about 23±1° C. and about 50±5% relative humidity for 5 days. Egg and larval mortality was then visually assessed.

Myzus persicae = test: Green peach aphid (Myzus persicae) artificial diet test; type: in vivo; conditions: 72 h, read-out: mortality in comparison with untreated controls
Text: For evaluating control of green peach aphid (Myzus persicae) the test unit consisted of 96-well-microtiter plates containing liquid artificial diet under an artificial membrane.
The compounds were formulated using a solution containing 75% v/v water and 25% v/v DMSO. Different concentrations of formulated compounds were pipetted into the aphid diet, using a custom built pipetter, at two replications.
After application, 5-8 adult aphids were placed on the artificial membrane inside the microtiter plate wells. The aphids were then allowed to suck on the treated aphid diet and incubated at about 23±1° C. and about 50±5% relative humidity for 3 days. Aphid mortality and fecundity was then visually assessed.

Heliothis virescens = test: Tobacco budworm (Heliothis virescens) diet/egg test; type: in vivo; conditions: for mortality at 2500 ppm: Heliothis virescens, 120 h, read-out: mortality in comparison with untreated controls
Experimental: For evaluating control of tobacco budworm (Heliothis virescens) the test unit consisted of 96-well-microtiter plates containing an insect diet and 15-25 H. virescens eggs.
The compounds were formulated using a solution containing 75% v/v water and 25% v/v DMSO. Different concentrations of formulated compounds were sprayed onto the insect diet at 10 μl, using a custom built micro atomizer, at two replications.
as §1
The biological activity shown tables under CB.1 and CB.2 was evaluated on scale range from 0% as showing no biological activity to 100% as having total control. The biological tests were conducted as described above.

Megoura viciae = test: Vetch aphid (Megoura viciae) leaf disk test; type: in vivo; conditions: foliar, 120 h, read-out: mortality in comparison with untreated controls
Experimental: For evaluating control of vetch aphid (Megoura viciae) through contact or systemic means the test unit consisted of 24-well-microtiter plates containing broad bean leaf disks.
The compounds were formulated using a solution containing 75% v/v water and 25% v/v DMSO. Different concentrations of formulated compounds were sprayed onto the leaf disks at 2.5 μl, using a custom built micro atomizer, at two replications.
After application, the leaf disks were air-dried and 5-8 adult aphids placed on the leaf disks inside the microtiter plate wells. The aphids were then allowed to suck on the treated leaf disks and incubated at about 23±1° C. and about 50±5% relative humidity for 5 days. Aphid mortality and fecundity was then visually assessed.

Aedes aegypti = Aedes aegypti neonate larvae motility assay; type: in vivo; conditions: larval motility, dose response
Experimental: Compounds formulated in 100% DMSO are tested in microtiter plates containing 180 ul 1× Luria Broth media and 10 neonate A. aegypti larvae. The efficacy of a compound is determined based on the motility of the larvae as compared to average motility of control wells containing DMSO only. A dose response assay is conducted with compounds with >80% reduction in motility in the primary assay to determine an EC50 value. Selected compounds are advanced to insecticide secondary assays.

[1] = 2500 ppm, egg and larval mortality, 5 days
[2] = 2500 ppm, adult aphids on treated artificial diet, 3 days
[3] = 2500 ppm, adult aphids on sprayed broad bean leaf disks, 5 days

Structure (SMILES): CNC(=O)C(C)(CCSC(F)(F)F)S(=O)(=O)CCC(F)(F)C(F)(F)F (stereo not shown) [II-21, 2,N-Dimethyl-2-(3,3,4,4,4-pentafluoro-butane-1-sulfonyl)-4-trifluoromethylsulfanyl-butyramide]
mortality at 2500 ppm (Ceratitis capitata; [1]): > 90%
mortality at 2500 ppm (Anthonomus grandis; [1]): > 90%

melting point: 65 to 67 °C
Structure (SMILES): N#CC(CCSC(F)(F)F)S(=O)(=O)Cn1ccc(C(F)(F)F)n1 (stereo not shown) [II-13, 2-(3-Trifluoromethyl-pyrazol-1-ylmethanesulfonyl)-4-trifluoromethylsulfanyl-butyronitrile]

Structure (SMILES): CC(C#N)(CCSC(F)(F)F)S(=O)(=O)CCC(F)(F)C(F)(F)C(F)(F)F (stereo not shown) [II-25, 2-(3,3,4,4,5,5,5-Heptafluoro-pentane-1-sulfonyl)-2-methyl-4-trifluoromethylsulfanyl-butyronitrile]
mortality at 2500 ppm (Ceratitis capitata): > 90%
mortality at 2500 ppm (Anthonomus grandis): > 90%
mortality at 2500 ppm (Myzus persicae): > 90%
mortality at 2500 ppm (Heliothis virescens): > 90%
mortality at 2500 ppm (Megoura viciae): > 90%

melting point: 100 to 102 °C
Structure (SMILES): N#CC(CCSC(F)(F)F)S(=O)(=O)Cc1cccc(C(F)(F)F)c1 (stereo not shown) [II-5, 2-(3-Trifluoromethyl-phenylmethanesulfonyl)-4-trifluoromethylsulfanyl-butyronitrile]
EC50 (Aedes aegypti): < 5 mg/L

Structure (SMILES): N#CC(CCSC(F)(F)F)[S+]([O-])CCC(F)(F)C(F)(F)F (stereo not shown) [II-16, 2-(3,3,4,4,4-Pentafluoro-butane-1-sulfinyl)-4-trifluoromethylsulfanyl-butyronitrile]
mortality at 2500 ppm (Ceratitis capitata; [1]): > 90%
mortality at 2500 ppm (Anthonomus grandis; [1]): > 90%
mortality at 2500 ppm (Myzus persicae; [2]): > 90%
mortality at 2500 ppm (Megoura viciae; [3]): > 90%

Structure (SMILES): CCOC(=O)C(CCSC(F)(F)F)S(=O)(=O)CCC(F)(F)C(F)(F)F (stereo not shown) [II-3, Ethyl 2-(3,3,4,4,4-Pentafluoro-butane-1-sulfonyl)-4-trifluoromethylsulfanyl-butyrate]
mortality at 2500 ppm (Ceratitis capitata; [1]): > 90%
mortality at 2500 ppm (Anthonomus grandis; [1]): > 90%
mortality at 2500 ppm (Myzus persicae; [2]): > 90%
EC50 (Aedes aegypti): < 5 mg/L
mortality at 2500 ppm (Megoura viciae; [3]): > 90%

melting point: 109 to 110 °C
Structure (SMILES): CC(C#N)(CCSC(F)(F)F)S(=O)(=O)Cc1ccc(C(F)(F)F)nc1 (stereo not shown) [II-10, 2-Methyl-2-(6-trifluoromethyl-pyridin-3-ylmethanesulfonyl)-4-trifluoromethylsulfanyl-butyronitrile]

Structure (SMILES): N#CC(CCC(F)(F)F)S(=O)(=O)CCC(F)(F)C(F)(F)F (stereo not shown) [CE. 1, reference compound]
activity in [%] (Heliothis virescens; 800 ppm, scale 0% no biological activity to 100% total control): 0%

Structure (SMILES): CCC(C#N)(CCSC(F)(F)F)S(=O)(=O)CCC(F)(F)C(F)(F)F (stereo not shown) [II-17, 2-Ethyl-2-(3,3,4,4,4-pentafluoro-butane-1-sulfonyl)-4-trifluoromethylsulfanyl-butyronitrile]
mortality at 2500 ppm (Ceratitis capitata; [1]): > 90%
mortality at 2500 ppm (Anthonomus grandis; [1]): > 90%
mortality at 2500 ppm (Myzus persicae; [2]): > 90%
mortality at 2500 ppm (Heliothis virescens; [1]): > 90%
EC50 (Aedes aegypti): < 5 mg/L

Structure (SMILES): N#CC(CCSC(F)(F)F)SCCC(F)(F)C(F)(F)F (stereo not shown) [II-15, 2-(3,3,4,4,4-Pentafluoro-butylsulfanyl)-4-trifluoromethylsulfanyl-butyronitrile]
mortality at 2500 ppm (Ceratitis capitata; [1]): > 90%
mortality at 2500 ppm (Anthonomus grandis; [1]): > 90%
mortality at 2500 ppm (Myzus persicae; [2]): > 90%
mortality at 2500 ppm (Heliothis virescens; [1]): > 90%
EC50 (Aedes aegypti): < 5 mg/L
mortality at 2500 ppm (Megoura viciae; [3]): > 90%

melting point: 129 to 130 °C
Structure (SMILES): N#CC(CCSC(F)(F)F)S(=O)(=O)Cc1ccc(C(F)(F)F)nc1 (stereo not shown) [II-9, 2-(6-Trifluoromethyl-pyridin-3-ylmethanesulfonyl)-4-trifluoromethylsulfanyl-butyronitrile]

Structure (SMILES): CC(CCSC(F)(F)F)(C(N)=O)S(=O)(=O)CCC(F)(F)C(F)(F)F (stereo not shown) [II-20, 2-Methyl-2-(3,3,4,4,4-pentafluoro-butane-1-sulfonyl)-4-trifluoromethylsulfanyl-butyramide]
mortality at 2500 ppm (Ceratitis capitata; [1]): > 90%
mortality at 2500 ppm (Anthonomus grandis; [1]): > 90%

Structure (SMILES): CC(C#N)(CCSC(F)(F)F)S(=O)(=O)Cn1ccc(C(F)(F)F)n1 (stereo not shown) [II-14, 2-Methyl-2-(3-trifluoromethyl-pyrazol-1-ylmethanesulfonyl)-4-trifluoromethylsulfanyl-butyronitrile]
mortality at 2500 ppm (Ceratitis capitata; [1]): > 90%
mortality at 2500 ppm (Anthonomus grandis; [1]): > 90%

melting point: 153 to 155 °C
Structure (SMILES): N#CC(CCSC(F)(F)F)S(=O)(=O)Cc1ccc(C(F)(F)F)cc1 (stereo not shown) [II-11, 2-(4-Trifluoromethyl-phenylmethanesulfonyl)-4-trifluoromethylsulfanyl-butyronitrile]

Structure (SMILES): CCCC(C#N)(CCSC(F)(F)F)S(=O)(=O)CCC(F)(F)C(F)(F)F (stereo not shown) [II-18, 2-(3,3,4,4,4-Pentafluoro-butane-1-sulfonyl)-2-(2-trifluoromethylsulfanyl-ethyl)-pentanenitrile]
mortality at 2500 ppm (Ceratitis capitata; [1]): > 90%
mortality at 2500 ppm (Anthonomus grandis; [1]): > 90%
EC50 (Aedes aegypti): < 5 mg/L

Structure (SMILES): CCOC(=O)C(C)(CCSC(F)(F)F)S(=O)(=O)CCC(F)(F)C(F)(F)F (stereo not shown) [II-4, Ethyl 2-methyl-2-(3,3,4,4,4-pentafluoro-butane-1-sulfonyl)-4-trifluoromethylsulfanyl-butyrate]
mortality at 2500 ppm (Ceratitis capitata; [1]): > 90%
mortality at 2500 ppm (Anthonomus grandis; [1]): > 90%
mortality at 2500 ppm (Myzus persicae; [2]): > 90%
EC50 (Aedes aegypti): < 5 mg/L
mortality at 2500 ppm (Megoura viciae; [3]): > 90%

Structure (SMILES): N#CC(CCSC(F)(F)F)S(=O)(=O)CCC(F)(F)C(F)(F)C(F)(F)F (stereo not shown) [II-24, 2-(3,3,4,4,5,5,5-Heptafluoro-pentane-1-sulfonyl)-4-trifluoromethylsulfanyl-butyronitrile]
mortality at 2500 ppm (Anthonomus grandis): > 90%
mortality at 2500 ppm (Myzus persicae): > 90%
mortality at 2500 ppm (Megoura viciae): > 90%

melting point: 92 to 94 °C
Structure (SMILES): CC(C#N)(CCSC(F)(F)F)S(=O)(=O)Cc1cccc(C(F)(F)F)c1 (stereo not shown) [II-6, 2-Methyl-2-(3-trifluoromethyl-phenylmethanesulfonyl)-4-trifluoromethylsulfanyl-butyronitrile]
EC50 (Aedes aegypti): < 5 mg/L

Structure (SMILES): CC(CCSC(F)(F)F)(C(N)=S)S(=O)(=O)CCC(F)(F)C(F)(F)F (stereo not shown) [II-23, 2-Methyl-2-(3,3,4,4,4-pentafluoro-butane-1-sulfonyl)-4-trifluoromethylsulfanyl-thiobutyramide]
mortality at 2500 ppm (Ceratitis capitata; [1]): > 90%
mortality at 2500 ppm (Anthonomus grandis; [1]): > 90%
mortality at 2500 ppm (Heliothis virescens; [1]): > 90%

Structure (SMILES): CN(C)C(=O)C(C)(CCSC(F)(F)F)S(=O)(=O)CCC(F)(F)C(F)(F)F (stereo not shown) [II-22, 2,N,N-Trimethyl-2-(3,3,4,4,4-pentafluoro-butane-1-sulfonyl)-4-trifluoromethylsulfanyl-butyramide]
mortality at 2500 ppm (Ceratitis capitata; [1]): > 90%
mortality at 2500 ppm (Anthonomus grandis; [1]): > 90%
mortality at 2500 ppm (Myzus persicae; [2]): > 90%
EC50 (Aedes aegypti): < 5 mg/L
mortality at 2500 ppm (Megoura viciae; [3]): > 90%

Structure (SMILES): CC(C#N)(CCSC(F)(F)F)S(=O)(=O)CCSC(F)(F)F (stereo not shown) [II-26, 2-Methyl-4-trifluoromethylsulfanyl-2-(2-trifluoromethylsulfanyl-ethanesulfonyl)-butyronitrile]
mortality at 2500 ppm (Anthonomus grandis; [1]): > 90%

Structure (SMILES): CC(CCSC(F)(F)F)(C(=O)O)S(=O)(=O)CCC(F)(F)C(F)(F)F (stereo not shown) [II-19, 2-Methyl-2-(3,3,4,4,4-pentafluoro-butane-1-sulfonyl)-4-trifluoromethylsulfanyl-butyric acid]
mortality at 2500 ppm (Anthonomus grandis; [1]): > 90%
mortality at 2500 ppm (Megoura viciae; [3]): > 90%

melting point: 122 to 124 °C
Structure (SMILES): N#CC(CCSC(F)(F)F)S(=O)(=O)Cc1ccc(Cl)nc1 (stereo not shown) [II-7, 2-(6-Chloro-pyridin-3-ylmethanesulfonyl)-4-trifluoromethylsulfanyl-butyronitrile]

melting point: 102 to 104 °C
Structure (SMILES): CC(C#N)(CCSC(F)(F)F)S(=O)(=O)Cc1ccc(C(F)(F)F)cc1 (stereo not shown) [II-12, 2-Methyl-2-(4-trifluoromethyl-phenylmethanesulfonyl)-4-trifluoromethylsulfanyl-butyronitrile]
